Experiment [1] has as its target T1, Excitatory amino acid transporter 3 (Homo sapiens, UniProt P43005).
T1 sequence (P43005 whole entry): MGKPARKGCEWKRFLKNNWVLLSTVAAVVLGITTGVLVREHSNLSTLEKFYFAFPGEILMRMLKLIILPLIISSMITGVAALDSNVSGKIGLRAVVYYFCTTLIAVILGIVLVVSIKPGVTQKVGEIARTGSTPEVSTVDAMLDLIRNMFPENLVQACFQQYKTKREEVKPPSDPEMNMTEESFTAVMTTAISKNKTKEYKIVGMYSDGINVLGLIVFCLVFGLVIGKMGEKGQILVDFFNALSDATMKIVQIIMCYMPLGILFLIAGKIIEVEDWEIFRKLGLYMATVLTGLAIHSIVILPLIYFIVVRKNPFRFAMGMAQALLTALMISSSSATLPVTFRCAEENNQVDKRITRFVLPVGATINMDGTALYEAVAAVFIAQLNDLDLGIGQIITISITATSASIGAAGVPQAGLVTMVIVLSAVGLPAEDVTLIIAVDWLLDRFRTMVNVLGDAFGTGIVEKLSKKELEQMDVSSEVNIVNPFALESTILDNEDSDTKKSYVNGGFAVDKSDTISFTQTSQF

For experiment [2], the target named is Excitatory amino acid transporter 1 (Homo sapiens, UniProt P43003).
Sequence of Excitatory amino acid transporter 1 (P43003 whole entry): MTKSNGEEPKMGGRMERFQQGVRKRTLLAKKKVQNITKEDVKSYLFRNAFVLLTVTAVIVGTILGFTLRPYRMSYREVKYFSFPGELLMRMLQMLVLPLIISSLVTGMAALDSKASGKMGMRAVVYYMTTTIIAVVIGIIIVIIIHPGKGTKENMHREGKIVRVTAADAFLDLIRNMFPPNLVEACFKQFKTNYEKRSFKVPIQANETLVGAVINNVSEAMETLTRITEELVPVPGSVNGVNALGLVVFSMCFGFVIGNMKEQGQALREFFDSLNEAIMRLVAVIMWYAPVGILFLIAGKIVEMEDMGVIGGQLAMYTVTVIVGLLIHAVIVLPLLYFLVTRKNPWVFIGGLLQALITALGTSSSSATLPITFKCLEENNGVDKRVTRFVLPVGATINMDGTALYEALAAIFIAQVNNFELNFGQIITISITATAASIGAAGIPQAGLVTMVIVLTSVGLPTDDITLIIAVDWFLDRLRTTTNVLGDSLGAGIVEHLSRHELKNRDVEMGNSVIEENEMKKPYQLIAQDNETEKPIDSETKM

With `Cc1cc(C(=O)NC[C@H](N)C(=O)O)ccc1-c1ccc(Cl)cc1` [3-[3-Methyl-4-(4-chlorophenyl)benzoylamino]alanine], in experiment [1], 1450 nM corresponded to half-maximal inhibition (IC50).
As to `N[C@@H](CC(=O)Nc1ccc2c(c1)Cc1cc(C(F)(F)F)ccc1-2)C(=O)O` [WAY-212922], the half-inhibitory concentration (IC50) (commonly the concentration at which inhibition is half-maximal) in experiment [2] amounted to 3430 nM; in experiment [1], 1840 nM.
The corresponding values for `Cc1ccccc1-c1ccc(NC(=O)C[C@H](N)C(=O)O)cc1` [WAY-213394] are 1970 nM and 6560 nM.

The values are drawn from BindingDB's records for doi:10.1124/mol.105.012005 (Wyeth Research, 2005).
